≈ marks a conversion by molar mass, not a printed value. Like-named read-outs stand apart in the source and are kept apart here.
Assays:
Bacillus subtilis = type: cell-based; conditions: Bacillus subtilis ATCC 6633
Description: (§1) The experiments were repeated three times.

Morganella morganii = type: cell-based
Description: as §1

Pseudomonas aeruginosa = type: cell-based
Description: as §1

Acinetobacter baumannii = test system: Acinetobacter baumannii
Procedure: (§2) MIC screening of the peptides against a panel of ATCC and clinical strains was performed using broth microdilution method.^1 Briefly, peptides stock solutions in DMSO (0.1/G TFA) were diluted into Mueller Hinton Broth (MHB), followed by two-fold serial dilution in a 96-well plate. Bacteria culture in mid-log phase was diluted into MHB to yield […] colony-forming units (CFU)/mL. Equal volume of the starting inoculum was added to the peptide samples, then incubated for 18-20 h (37° C., 120 rpm). OD600 of the samples was then measured using Tecan Infinite M200 (TECAN, Männedorf, Switzerland). MIC is defined as the lowest peptide concentration to achieve more than 90% reduction in OD600 relative to the drug-free control. The experiments were repeated three times. Colistin-resistant clinical isolates are a kind gift from Dr. Jeanette Koh (National University Hospital, Singapore). Multidrug-resistant clinical isolates are a kind gift from Dr. Lakshminarayanan Rajamani (Singapore Eye Research Institute, Singapore).
(§3) Kanamycin and ampicillin were used as antibacterial control agents. […] Then, sequential 2-fold serial dilutions of the mix were diluted in 50 μL MH broth and 50 μL cell cultures were added to wells. […] All assays were carried out in triplicate.

Enterobacter cloacae = test system: Enterobacter cloacae
Procedure: as §2, §3

Escherichia coli = test system: Escherichia coli
Procedure: as §2, §3

Klebsiella pneumoniae = test system: Klebsiella pneumoniae
Procedure: as §2, §3

Staphylococcus aureus = test system: Staphylococcus aureus
Procedure: as §2, §3

Bacillus cereus = Bacillus cereus ATCC 11778
Procedure: as §2

Enterobacteriaceae = test system: Enterobacteriaceae
Procedure: as §2

Salmonella entereditis = Salmonella entereditis ATCC 13076
Procedure: as §2

Salmonella typhimurium = Salmonella typhimurium ATCC 14028
Procedure: as §2

Shigella flexneri = Shigella flexneri M90T
Procedure: as §2

E. coli M6 [1] = conditions: E. coli M6, over 24 h
Procedure: Peptides stock solutions were diluted into MHB to desired concentrations. Bacteria culture in mid-log phase was diluted into MHB to yield 10^6 CFU/mL. The mixture was incubated at 37° C. with shaking. At each time point, 10 μL of the sample was drawn out and subjected to ten-fold serial dilution. 20 μL of relevant dilutions was dropped onto MHA plate using the drop plate method. The plate was incubated for 18-20 h at 37° C. Colony number was counted, and used for calculating the CFU/mL according to the equation:
CFU/mL=Colony count×50×dilution factor

E. coli M6 [2] = test system: E. coli M6
Procedure: Resistance development of E. coli M6 against xenorceptide A2 was assessed by serial passaging of the bacteria in broth containing subinhibitory concentrations of the peptide. In brief, bacteria culture at mid-log phase was diluted to 10^5-10^6 CFU/mL in MHB containing 0.25×, 0.5×, 1×, 2×, and 4×MIC of the peptide. […] A new set of peptide concentration range was added to the cultures based on the latest MIC. This process was repeated over 14 days for three independent starting cultures.

E. coli M6 [3] = test system: E. coli M6; remark: listed apart in the source
Procedure: Female C57BL/6NTac mice aged 6-8 weeks were acquired from InVivos Pte Ltd (Singapore, Singapore). Solutions for injections were prepared fresh in pharmaceutical grade saline and filter-sterilized. Murine peritonitis model was established according to literature. Briefly, healthy mice were rendered neutropenic by administering i.p. injection (0.5 mL) of cyclophosphamide on day −4 (150 mg/kg) and day −1 (100 mg/kg). On day 0, mice were infected with E. coli M6 (10^9 CFU/mL) through i.p. injection (0.1 mL). […] At 2 h post-treatment, mice were humanely euthanized by carbon dioxide asphyxiation and cervical dislocation. Sterile PBS (3 mL) was injected into the peritoneal cavity, followed by abdominal massage and collection of peritoneal fluid (1-2 mL). Blood (0.3-0.5 mL) was collected through cardiac puncture. Liver, spleen, and kidney were surgically removed and stored in 0.1% Triton X-100 (in PBS). Tissue homogenization was performed using gentleMACS dissociator (Miltenyi Biotec, Germany) by following a published protocol. Cell aggregates were removed using a 30 μm mesh MACS SmartStrainer (Miltenyi Biotec). Blood, peritoneal fluid, and tissue homogenates were plated on LB agar and incubated overnight for colony counting.

[4] = E. coli M6, sub-inhibitory concentrations, over two weeks
[5] = 50 mg/kg single i.p. dose, 5 h post-treatment, neutropenic mice infected with E. coli M6

CC(C)[C@@H]1NC(=O)[C@@H](N)Cc2c[nH]c3cc(ccc23)[C@H](C(N)=O)[C@@H](C(=O)N[C@@H](C)C(=O)N[C@H]2Cc3cccc(c3)[C@H](CCNC(=N)N)[C@@H](C(=O)N[C@H]3Cc4c[nH]c5cc(ccc45)[C@H](CCCN)[C@@H](C(=O)N[C@@H](CO)C(=O)N[C@@H](Cc4ccccc4)C(=O)O)NC(=O)[C@H](CO)NC3=O)NC(=O)[C@H](C)NC2=O)NC1=O [xenorceptide A2]
MIC (Bacillus subtilis): >64 µg/mL | MIC (Morganella morganii; Morganella morganii ATCC 25830): 32 µg/mL (≈ 21.4 µM) | MIC (Morganella morganii; Morganella morganii CRE1001): 32 µg/mL (≈ 21.4 µM) | MIC (Pseudomonas aeruginosa; Pseudomonas aeruginosa ATCC 9027): 64 µg/mL (≈ 42.9 µM) | MIC (Pseudomonas aeruginosa; Pseudomonas aeruginosa DM4150R): 64 µg/mL (≈ 42.9 µM) | MIC (Pseudomonas aeruginosa; Pseudomonas aeruginosa DM23376): >64 µg/mL | MIC (Pseudomonas aeruginosa; Pseudomonas aeruginosa DR4877/07): 64 µg/mL (≈ 42.9 µM) | MIC (Pseudomonas aeruginosa; Pseudomonas aeruginosa DR5790/07): 64 µg/mL (≈ 42.9 µM) | MIC (Acinetobacter baumannii; Acinetobacter baumannii ACBA1001): 32 µg/mL (≈ 21.4 µM) | MIC (Acinetobacter baumannii; Acinetobacter baumannii ACBA1002): 32 µg/mL (≈ 21.4 µM) | MIC (Acinetobacter baumannii; Acinetobacter baumannii ACBA1003): 32 µg/mL (≈ 21.4 µM) | MIC (Acinetobacter baumannii; Acinetobacter baumannii ACBA1004): 64 µg/mL (≈ 42.9 µM) | MIC (Acinetobacter baumannii; Acinetobacter baumannii ATCC 19606): >64 µg/mL | MIC (Enterobacter cloacae; Enterobacter cloacae CRE1010): 4 µg/mL (≈ 2.68 µM) | MIC (Enterobacter cloacae; Enterobacter cloacae CRE1014): 16 µg/mL (≈ 10.7 µM) | MIC (Enterobacter cloacae; Enterobacter cloacae CRE1015): 32 µg/mL (≈ 21.4 µM) | MIC (Enterobacter cloacae; Enterobacter cloacae CRE1016): 16 µg/mL (≈ 10.7 µM) | MIC (Enterobacter cloacae; Enterobacter cloacae CRE1017): 32 µg/mL (≈ 21.4 µM) | MIC (Escherichia coli; Escherichia coli ATCC 25922): 4 µg/mL (≈ 2.68 µM) | MIC (Escherichia coli; Escherichia coli CRE1006, carbapenem-resistant clinical isolate): 4 µg/mL (≈ 2.68 µM) | MIC (Escherichia coli; Escherichia coli M6, carbapenem- and colistin-resistant clinical isolate): 8 µg/mL (≈ 5.36 µM) | MIC (Escherichia coli; Escherichia coli M10, carbapenem- and colistin-resistant clinical isolate): 4 µg/mL (≈ 2.68 µM) | MIC (Escherichia coli; Escherichia coli M11, carbapenem- and colistin-resistant clinical isolate): 4 µg/mL (≈ 2.68 µM) | MIC (Klebsiella pneumoniae; Klebsiella pneumoniae ATCC 700603): 8 µg/mL (≈ 5.36 µM) | MIC (Klebsiella pneumoniae; Klebsiella pneumoniae CRE 1007): 8 µg/mL (≈ 5.36 µM) | MIC (Klebsiella pneumoniae; Klebsiella pneumoniae CRE1008): 8 µg/mL (≈ 5.36 µM) | MIC (Klebsiella pneumoniae; Klebsiella pneumoniae CRE1011): 8 µg/mL (≈ 5.36 µM) | MIC (Klebsiella pneumoniae; Klebsiella pneumoniae CRE1012): 8 µg/mL (≈ 5.36 µM) | MIC (Staphylococcus aureus; Staphylococcus aureus ATCC 29737): >64 µg/mL | MIC (Staphylococcus aureus; Staphylococcus aureus ATCC 43300): >64 µg/mL | MIC (Bacillus cereus): >64 µg/mL | potency compared with dynobactin and darobactin (Enterobacteriaceae; against Enterobactericeae): more potent than dynobactin and has comparable potency to darobactin | MIC values (Enterobacteriaceae; several carbapenamase-resistant Enterobacteriaceae (CRE)): 4 to 8 µg/mL | MIC (Salmonella entereditis): 8 µg/mL (≈ 5.36 µM) | MIC (Salmonella typhimurium): 8 µg/mL (≈ 5.36 µM) | MIC (Shigella flexneri): 2 µg/mL (≈ 1.34 µM) | bactericidal effect: reduction in bacteria count (E. coli M6 [1]; at 8×MIC): 3 log | bactericidal effect: reduction in bacteria count (E. coli M6 [1]; at both 4× and 8×MIC): 3 log | level at which resistance development halted (E. coli M6 [2]; E. coli): 4 ×MIC | period over which resistance development occurred (E. coli M6 [2]; E. coli): 6 to 8 days | MIC of strains obtained by serial passage (E. coli M6 [2]; [4]): 32 µg/mL | resistance of strains obtained by serial passage (E. coli M6 [2]; [4]): ~4 fold | cytotoxicity: concentration up to which no cytotoxicity was shown (HepG2 human cells): > 256 µg/mL | decrease in colony count relative to saline control, blood (E. coli M6 [3]; [5]): 7 log | decrease in colony count relative to saline control, liver (E. coli M6 [3]; [5]): 4 log | decrease in colony count relative to saline control, peritoneal fluid (E. coli M6 [3]; [5]): 6 log | reduction in bacteria burden, kidney (E. coli M6 [3]; [5]): 2 log | reduction in bacteria burden, spleen (E. coli M6 [3]; [5]): 2 log | in vivo efficacy compared with colistin (E. coli M6 [3]; both at 5 mg/kg, single i.p. dose): comparable efficacy to colistin

— US20260049104A1, “PEPTIDES WITH ANTIMICROBIAL PROPERTIES” (priority 2022, published 2026)
